{
  "source": "PubChem BioAssay AID1259407",
  "about": "(Chemical Carcinogenesis Research Information System (CCRIS), 2018)",
  "system": "CCRIS mutagenicity, Ames/micronucleus/aberration tests",
  "assay": "CCRIS mutagenicity studies",
  "note": "The source made the active and inactive calls. No rule for the calls is given here.",
  "data": [
    {"smiles": "CNNCc1ccc(C(=O)NC(C)C)cc1", "values": [
      {"measurement": "mutagenic call", "setting": "Test System: AMES SALMONELLA TYPHIMURIUM, Strain/Indicator: TA97, Metabolic Activation: HAMSTER, LIVER, S-9, AROCLOR 1254 (10 OR 30%), Method: PREINCUBATION", "value": "inactive; negative"},
      {"measurement": "mutagenic call", "setting": "Test System: AMES SALMONELLA TYPHIMURIUM, Strain/Indicator: TA97, Metabolic Activation: NONE, Method: PREINCUBATION", "value": "inactive; negative"},
      {"measurement": "mutagenic call", "setting": "Test System: AMES SALMONELLA TYPHIMURIUM, Strain/Indicator: TA97, Metabolic Activation: RAT, LIVER, S-9, AROCLOR 1254 (10 OR 30%), Method: PREINCUBATION", "value": "inactive; negative"},
      {"measurement": "mutagenic call", "setting": "Test System: AMES SALMONELLA TYPHIMURIUM, Strain/Indicator: TA98, Metabolic Activation: HAMSTER, LIVER, S-9, AROCLOR 1254 (10 OR 30%), Method: PREINCUBATION", "value": "inactive; negative"},
      {"measurement": "mutagenic call", "setting": "Test System: AMES SALMONELLA TYPHIMURIUM, Strain/Indicator: TA98, Metabolic Activation: NONE, Method: PREINCUBATION", "value": "inactive; negative"},
      {"measurement": "mutagenic call", "setting": "Test System: AMES SALMONELLA TYPHIMURIUM, Strain/Indicator: TA98, Metabolic Activation: NONE, Method: STANDARD PLATE", "value": "inactive; negative"},
      {"measurement": "mutagenic call", "setting": "Test System: AMES SALMONELLA TYPHIMURIUM, Strain/Indicator: TA98, Metabolic Activation: RAT, LIVER, S-9, AROCLOR 1254 (10 OR 30%), Method: PREINCUBATION", "value": "inactive; negative"},
      {"measurement": "mutagenic call", "setting": "Test System: AMES SALMONELLA TYPHIMURIUM, Strain/Indicator: TA98, Metabolic Activation: S-9, Method: PREINCUBATION", "value": "inactive; negative"},
      {"measurement": "mutagenic call", "setting": "Test System: AMES SALMONELLA TYPHIMURIUM, Strain/Indicator: TA98, Metabolic Activation: S-9, Method: STANDARD PLATE", "value": "inactive; negative"},
      {"measurement": "mutagenic call", "setting": "Test System: AMES SALMONELLA TYPHIMURIUM, Strain/Indicator: TA100, Metabolic Activation: HAMSTER, LIVER, S-9, AROCLOR 1254 (10 OR 30%), Method: PREINCUBATION", "value": "inactive; negative"},
      {"measurement": "mutagenic call", "setting": "Test System: AMES SALMONELLA TYPHIMURIUM, Strain/Indicator: TA100, Metabolic Activation: NONE, Method: PREINCUBATION", "value": "inactive; negative"},
      {"measurement": "mutagenic call", "setting": "Test System: AMES SALMONELLA TYPHIMURIUM, Strain/Indicator: TA100, Metabolic Activation: NONE, Method: STANDARD PLATE", "value": "inactive; negative"},
      {"measurement": "mutagenic call", "setting": "Test System: AMES SALMONELLA TYPHIMURIUM, Strain/Indicator: TA100, Metabolic Activation: RAT, LIVER, S-9, AROCLOR 1254 (10 OR 30%), Method: PREINCUBATION", "value": "inactive; negative"},
      {"measurement": "mutagenic call", "setting": "Test System: AMES SALMONELLA TYPHIMURIUM, Strain/Indicator: TA100, Metabolic Activation: RAT, LIVER, S-9, PYRAZOLE, Method: PREINCUBATION", "value": "inactive; negative"},
      {"measurement": "mutagenic call", "setting": "Test System: AMES SALMONELLA TYPHIMURIUM, Strain/Indicator: TA100, Metabolic Activation: S-9, Method: PREINCUBATION", "value": "inactive; negative"},
      {"measurement": "mutagenic call", "setting": "Test System: AMES SALMONELLA TYPHIMURIUM, Strain/Indicator: TA100, Metabolic Activation: S-9, Method: STANDARD PLATE", "value": "inactive; negative"},
      {"measurement": "mutagenic call", "setting": "Test System: AMES SALMONELLA TYPHIMURIUM, Strain/Indicator: TA1530 (PKM101), Metabolic Activation: RAT, LIVER, S-9, ETHANOL, Method: PREINCUBATION", "value": "inactive; negative"},
      {"measurement": "mutagenic call", "setting": "Test System: AMES SALMONELLA TYPHIMURIUM, Strain/Indicator: TA1530 (PKM101), Metabolic Activation: RAT, LIVER, S-9, PYRAZOLE, Method: PREINCUBATION", "value": "inactive; negative"},
      {"measurement": "mutagenic call", "setting": "Test System: AMES SALMONELLA TYPHIMURIUM, Strain/Indicator: TA1535, Metabolic Activation: HAMSTER, LIVER, S-9, AROCLOR 1254 (10 OR 30%), Method: PREINCUBATION", "value": "inactive; negative"},
      {"measurement": "mutagenic call", "setting": "Test System: AMES SALMONELLA TYPHIMURIUM, Strain/Indicator: TA1535, Metabolic Activation: NONE, Method: PREINCUBATION", "value": "inactive; negative"},
      {"measurement": "mutagenic call", "setting": "Test System: AMES SALMONELLA TYPHIMURIUM, Strain/Indicator: TA1535, Metabolic Activation: RAT, LIVER, S-9, AROCLOR 1254 (10 OR 30%), Method: PREINCUBATION", "value": "inactive; negative"},
      {"measurement": "mutagenic call", "setting": "Test System: AMES SALMONELLA TYPHIMURIUM, Strain/Indicator: TA1535, Metabolic Activation: RAT, LIVER, S-9, PYRAZOLE, Method: PREINCUBATION", "value": "inactive; negative"},
      {"measurement": "mutagenic call", "setting": "Test System: AMES SALMONELLA TYPHIMURIUM, Strain/Indicator: TA1537, Metabolic Activation: HAMSTER, LIVER, S-9, AROCLOR 1254 (10 OR 30%), Method: PREINCUBATION", "value": "inactive; negative"},
      {"measurement": "mutagenic call", "setting": "Test System: AMES SALMONELLA TYPHIMURIUM, Strain/Indicator: TA1537, Metabolic Activation: NONE, Method: PREINCUBATION", "value": "inactive; negative"},
      {"measurement": "mutagenic call", "setting": "Test System: AMES SALMONELLA TYPHIMURIUM, Strain/Indicator: TA1537, Metabolic Activation: RAT, LIVER, S-9, AROCLOR 1254 (10 OR 30%), Method: PREINCUBATION", "value": "inactive; negative"},
      {"measurement": "mutagenic call", "setting": "Test System: CHINESE HAMSTER OVARY, Strain/Indicator: CHO-K1-BH4 (HGPRT), Metabolic Activation: RAT, LIVER, S-9, AROCLOR, Method: SUSPENSION/PLATE", "value": "active; positive"},
      {"measurement": "mutagenic call", "setting": "Test System: CHINESE HAMSTER V-79, Strain/Indicator: V-79/6-THIOGUANINE, Metabolic Activation: NONE, Method: CELL-MEDIATED", "value": "active; positive"},
      {"measurement": "mutagenic call", "setting": "Test System: CHINESE HAMSTER V-79, Strain/Indicator: V-79/6-THIOGUANINE, Metabolic Activation: RAT, LIVER, HEPATOCYTES, AROCLOR 1254, Method: CELL-MEDIATED", "value": "active; positive"},
      {"measurement": "mutagenic call", "setting": "Test System: CHINESE HAMSTER V-79, Strain/Indicator: V-79/6-THIOGUANINE, Metabolic Activation: RAT, LIVER, HEPATOCYTES, Method: CELL-MEDIATED", "value": "active; positive"},
      {"measurement": "mutagenic call", "setting": "Test System: CHINESE HAMSTER V-79, Strain/Indicator: V-79/6-THIOGUANINE, Metabolic Activation: RAT, LIVER, S-9, AROCLOR 1254, Method: CELL-MEDIATED", "value": "active; positive"},
      {"measurement": "mutagenic call", "setting": "Test System: CHINESE HAMSTER V-79, Strain/Indicator: V-79/6-THIOGUANINE, Metabolic Activation: RAT, LIVER, S-9, Method: CELL-MEDIATED", "value": "active; positive"},
      {"measurement": "mutagenic call", "setting": "Test System: E. COLI, Strain/Indicator: WP2 (HCR), Metabolic Activation: NONE, Method: STANDARD PLATE", "value": "inactive; negative"},
      {"measurement": "mutagenic call", "setting": "Test System: E. COLI, Strain/Indicator: WP2 (HCR), Metabolic Activation: S-9, Method: STANDARD PLATE", "value": "inactive; negative"},
      {"measurement": "mutagenic call", "setting": "Test System: E. COLI, Strain/Indicator: WP2 (PKM101), Metabolic Activation: RAT, LIVER, S-9, PYRAZOLE, Method: PREINCUBATION", "value": "inactive; negative"},
      {"measurement": "mutagenic call", "setting": "Test System: E. COLI, Strain/Indicator: WP2 UVRA (PKM101), Metabolic Activation: RAT, LIVER, S-9, PYRAZOLE, Method: PREINCUBATION", "value": "inactive; negative"},
      {"measurement": "mutagenic call", "setting": "Test System: E. COLI, Strain/Indicator: WP2 UVRA, Metabolic Activation: HAMSTER, LIVER, S-9, AROCLOR 1254, Method: STANDARD PLATE", "value": "inactive; negative"},
      {"measurement": "mutagenic call", "setting": "Test System: E. COLI, Strain/Indicator: WP2 UVRA, Metabolic Activation: HAMSTER, LIVER, S-9, Method: STANDARD PLATE", "value": "inactive; negative"},
      {"measurement": "mutagenic call", "setting": "Test System: E. COLI, Strain/Indicator: WP2 UVRA, Metabolic Activation: MOUSE, LIVER, S-9, AROCLOR 1254, Method: STANDARD PLATE", "value": "inactive; negative"},
      {"measurement": "mutagenic call", "setting": "Test System: E. COLI, Strain/Indicator: WP2 UVRA, Metabolic Activation: MOUSE, LIVER, S-9, Method: STANDARD PLATE", "value": "inactive; negative"},
      {"measurement": "mutagenic call", "setting": "Test System: E. COLI, Strain/Indicator: WP2 UVRA, Metabolic Activation: NONE, Method: STANDARD PLATE", "value": "inactive; negative"},
      {"measurement": "mutagenic call", "setting": "Test System: E. COLI, Strain/Indicator: WP2 UVRA, Metabolic Activation: RAT, LIVER, S-9, AROCLOR 1254, Method: STANDARD PLATE", "value": "inactive; negative"},
      {"measurement": "mutagenic call", "setting": "Test System: E. COLI, Strain/Indicator: WP2 UVRA, Metabolic Activation: RAT, LIVER, S-9, Method: STANDARD PLATE", "value": "inactive; negative"},
      {"measurement": "mutagenic call", "setting": "Test System: MOUSE LYMPHOMA, Strain/Indicator: L5178Y (HGPRT), Metabolic Activation: NONE, Method: SUSPENSION/PLATE", "value": "active; positive"},
      {"measurement": "mutagenic call", "setting": "Test System: MOUSE LYMPHOMA, Strain/Indicator: L5178Y (TK+/TK-), Metabolic Activation: NONE, Method: MICROWELL", "value": "active; positive"},
      {"measurement": "mutagenic call", "setting": "Test System: MOUSE LYMPHOMA, Strain/Indicator: L5178Y (TK+/TK-), Metabolic Activation: NONE, Method: MINIWELL", "value": "active; positive"},
      {"measurement": "mutagenic call", "setting": "Test System: MOUSE LYMPHOMA, Strain/Indicator: L5178Y (TK+/TK-), Metabolic Activation: RAT, LIVER, S-9, AROCLOR 1242 AND 1254 (2:1), Method: SUSPENSION/PLATE", "value": "active; positive"},
      {"measurement": "mutagenic call", "setting": "Test System: MOUSE LYMPHOMA, Strain/Indicator: L5178Y (TK+/TK-), Metabolic Activation: RAT, LIVER, S-9, AROCLOR 1254, Method: SUSPENSION/PLATE", "value": "active; positive"}
    ]}
  ]
}
